The test system of one assay is plasma dopamine level. Briefly: Dopamine level in the plasma of human subjects. Format: in vivo. The following applies: for Dopamine levels: human plasma, 2 h after administration. From the text:
The mean value of domamine in picograms/ml is set out below at days 1, 4 and 7. Eight human subjects who were given placebo tablets provides plasma samples from which the mean control dopamine levels given below were obtained.

Assay [1] concerns uptake of dopamine into striatal synaptosomes. The assay is described as follows: In vitro inhibition of dopamine uptake (14C-dopamine, rat striatal synaptosomes). Format: biochemical, rat (Sprague-Dawley). The settings on record: for IC50: 0.17 μM 14C-dopamine. The method, then: (1) In vitro inhibition of dopamine uptake
Male Sprague-Dawley rats (Charles River) were killed by cervical dislocation and the brains removed and placed in an ice-cold oxygenated Krebs solution containing 120 mM NaCl, 4.7 mM KCl, 2.1 mM KH2 PO4, 1.2 mM CaCl2, 0.6 mM MgSO4, 25 mM NaHCO3 and 11 mM glucose. The brains were then dissected according to the method of Glowinski and Iversen [J. Neurochem. (1966) 13 655-669] and the striata removed. The samples of striata were pooled, weighed and transferred to a glass homogenising vessel on ice, containing oxygenated 0.32M sucrose solution (20 volumes). […] The homogenate was centrifuged at 1000×g for 10 minutes at 4° C. and the supernatant containing a suspension of synaptosomes was used in the dopamine uptake inhibition tests described below. […] A solution of ^14 C-dopamine hydrochloride (Amersham International) was added (0.2 ml) to give a final concentration of 0.17 μM. The incubation was continued for a further 5 minutes before the contents of the tubes were filtered under vacuum through Whatman GF/F filters which were washed with ice-cold Krebs solution (2×5 ml). The filters were placed in scintillation vials containing 10 ml scintillation fluid (ES-299 supplied by Packard Instruments) and the radioactivity in the vials counted on a Packard 4530 scintillation counter. In each experiment there was a control tube in which no test compound was present, 3 tubes in which the compound being tested was present at one of three concentrations (100, 10 and 1 μM) and a background tube containing no test compound which was maintained at 0° C. to determine passive ^14 C-dopamine uptake. The count for each tube was registered in counts per minute (cpm) and the % inhibition of uptake (I) calculated from the formula [formula] […] The concentration which gave 50% inhibition of uptake was then calculated and is given below as the IC50 figure for each experiment.

Read-outs that look alike come from different tables or passages of the source.

For orientation: IC50 means the concentration at which inhibition is half-maximal. `CC(C)CC(N(C)C)C1(c2ccc(Cl)cc2)CCC1.Cl.O` (stereo not drawn) [N,N-dimethyl-1-[1-(4-chlorophenyl)cyclobutyl]-3-methylbutylamine hydrochloride monohydrate]: the Dopamine levels in the assay on plasma dopamine level (Day 1, 30 mg per day, control 122) was 254 pg/mL; in the assay with plasma dopamine level (Day 4, 30 mg per day, control 110), 294 pg/mL; in the assay with plasma dopamine level (Day 7, 30 mg per day, control 118), 219 pg/mL. Moreover, the “plasma dopamine levels (in words)” value in the assay on plasma dopamine level (human subjects, 30 mg dose) was “plasma dopamine levels had increased”. The “% Inhibition of uptake” value worked out at 31% in assay [1] (1 μM, Ex.1); 4% in assay [1] (1 μM, Ex.2); 12% in assay [1] (1 μM, Ex.3); 70% in assay [1] (10 μM, Ex.1); 35% in assay [1] (10 μM, Ex.2); 48% in assay [1] (10 μM, Ex.3). Besides, the “% Inhibition of uptake” value in assay [1] (100 μM, Ex.1) is on record as 96%; in assay [1] (100 μM, Ex.2) it was 81%; in assay [1] (100 μM, Ex.3), 86%. The “inhibition of 14C-dopamine uptake (in words)” value in assay [1] (100, 10 and 1 μM) is “inhibited ^14 C-dopamine uptake in a concentration-dependent manner”. The IC50 in assay [1] (Ex.1, 37° C., read-out: IC50) stood at 3.3 µM; in assay [1] (Ex.2, 37° C., read-out: IC50) it was 18 µM; in assay [1] (Ex.3, 37° C., read-out: IC50), 11 µM; in assay [1] (mean of three replicate experiments, read-out: mean (±SEM) IC50 value for inhibition of dopamine uptake) it was 11 ± 4.2 µM.

The values are drawn from patent US4871774A, “Medical treatment” (The Boots Company PLC, priority 1987, dated 1989).
